Values joined by “and” are separate entries in the source; they are usually repeats but may differ in a detail not shown here. Equal values may be shown once. Read-outs that look alike come from different tables or passages of the source. Values belong to the molecule of their own block, whether it stands above or below them.
Tests used:
UCP1 [1] = test system: UCP1; design: method as in Heaton and Nicholls, 1977; Divakaruni et al, 2012; details: whole mitochondria; ref Heaton and Nicholls, 1977; Divakaruni et al, 2012; cited from earlier work
UCP1 [2] = biological target: T1, UCP1 (Homo sapiens, UniProt P25874); test: Isothermal titration calorimetry of nucleotide binding; design: isotherm data point (enthalpy change per injection): unit not given here; details: for isotherm data point (enthalpy change per injection): representative isotherm;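 as to all read-outs here: purified human UCP1 in cacodylate buffer with lauryl maltose neopentyl glycol and cardiolipin, titrated with nucleotides, isotherms fitted by one-site model yielding ΔH, Kd and stoichiometry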
T1 construct: His8 (N, cleaved yes); Factor Xa protease cleavage site (N, cleaved yes); made in house; host or cells: Saccharomyces cerevisiae strain W303.1B
T1 sequence (P25874 1-307): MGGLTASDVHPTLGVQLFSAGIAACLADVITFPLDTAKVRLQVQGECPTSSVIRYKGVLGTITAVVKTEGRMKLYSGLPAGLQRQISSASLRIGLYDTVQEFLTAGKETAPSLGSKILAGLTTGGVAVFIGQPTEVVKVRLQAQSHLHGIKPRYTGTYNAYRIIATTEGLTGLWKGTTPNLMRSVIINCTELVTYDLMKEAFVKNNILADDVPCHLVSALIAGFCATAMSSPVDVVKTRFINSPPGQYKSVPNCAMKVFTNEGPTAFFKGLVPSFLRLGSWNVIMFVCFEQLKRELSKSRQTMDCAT

UCP1 [3] = biological target: T1, UCP1; test: Differential scanning fluorimetry (nanoDSF) thermal stability shift assay; type: binding; details: for ΔTm at 1000 µM: read-out: thermal shift (ΔTm)

SMILES: Nc1ccn([C@@H]2O[C@H](COP(=O)(O)OP(=O)(O)O)[C@@H](O)[C@H]2O)c(=O)n1 [CDP]
competition with GDP binding (UCP1 [1]): unable to displace the binding of GDP

binding affinity to UCP1 (in words) (UCP1 [2]; ITC): intermediary affinities | Kd (UCP1 [2]; ITC, pH 6.0, 20 °C, mean ± standard deviation of three biological repeats (Fig. 2A-E)): 3.77 ± 0.12 µM | Kd (UCP1 [2]; ITC, single biological repeats (source data Fig. 2F)): 3.68 µM and 3.9 µM and 3.73 µM | isotherm data point (enthalpy change per injection) (UCP1 [2]; Molar ratio (Nucleotide/UCP) 0.120417, pH 6.0, 20 °C): -20.3045 | isotherm data point (enthalpy change per injection) (UCP1 [2]; Molar ratio (Nucleotide/UCP) 0.181226, pH 6.0, 20 °C): -19.4276 | isotherm data point (enthalpy change per injection) (UCP1 [2]; Molar ratio (Nucleotide/UCP) 0.242439, pH 6.0, 20 °C): -18.5029 | isotherm data point (enthalpy change per injection) (UCP1 [2]; Molar ratio (Nucleotide/UCP) 0.304059, pH 6.0, 20 °C): -18.707 | isotherm data point (enthalpy change per injection) (UCP1 [2]; Molar ratio (Nucleotide/UCP) 0.366087, pH 6.0, 20 °C): -18.3445 | isotherm data point (enthalpy change per injection) (UCP1 [2]; Molar ratio (Nucleotide/UCP) 0.428528, pH 6.0, 20 °C): -17.3071 | isotherm data point (enthalpy change per injection) (UCP1 [2]; Molar ratio (Nucleotide/UCP) 0.491383, pH 6.0, 20 °C): -16.412 | isotherm data point (enthalpy change per injection) (UCP1 [2]; Molar ratio (Nucleotide/UCP) 0.554656, pH 6.0, 20 °C): -17.0687 | isotherm data point (enthalpy change per injection) (UCP1 [2]; Molar ratio (Nucleotide/UCP) 0.618348, pH 6.0, 20 °C): -15.1625 | isotherm data point (enthalpy change per injection) (UCP1 [2]; Molar ratio (Nucleotide/UCP) 0.682464, pH 6.0, 20 °C): -14.4377 | isotherm data point (enthalpy change per injection) (UCP1 [2]; Molar ratio (Nucleotide/UCP) 0.747006, pH 6.0, 20 °C): -12.3158 | isotherm data point (enthalpy change per injection) (UCP1 [2]; Molar ratio (Nucleotide/UCP) 0.811976, pH 6.0, 20 °C): -11.9274 | isotherm data point (enthalpy change per injection) (UCP1 [2]; Molar ratio (Nucleotide/UCP) 0.877378, pH 6.0, 20 °C): -11.0392 | isotherm data point (enthalpy change per injection) (UCP1 [2]; Molar ratio (Nucleotide/UCP) 0.943214, pH 6.0, 20 °C): -8.777 | isotherm data point (enthalpy change per injection) (UCP1 [2]; Molar ratio (Nucleotide/UCP) 1.00949, pH 6.0, 20 °C): -7.389 | isotherm data point (enthalpy change per injection) (UCP1 [2]; Molar ratio (Nucleotide/UCP) 1.0762, pH 6.0, 20 °C): -6.878 | isotherm data point (enthalpy change per injection) (UCP1 [2]; Molar ratio (Nucleotide/UCP) 1.14336, pH 6.0, 20 °C): -5.2039 | isotherm data point (enthalpy change per injection) (UCP1 [2]; Molar ratio (Nucleotide/UCP) 1.21096, pH 6.0, 20 °C): -4.2804 | isotherm data point (enthalpy change per injection) (UCP1 [2]; Molar ratio (Nucleotide/UCP) 1.27901, pH 6.0, 20 °C): -2.298 | isotherm data point (enthalpy change per injection) (UCP1 [2]; Molar ratio (Nucleotide/UCP) 1.34751, pH 6.0, 20 °C): -2.606 | isotherm data point (enthalpy change per injection) (UCP1 [2]; Molar ratio (Nucleotide/UCP) 1.41647, pH 6.0, 20 °C): -2.5907 | isotherm data point (enthalpy change per injection) (UCP1 [2]; Molar ratio (Nucleotide/UCP) 1.48589, pH 6.0, 20 °C): -0.9936 | isotherm data point (enthalpy change per injection) (UCP1 [2]; Molar ratio (Nucleotide/UCP) 1.55577, pH 6.0, 20 °C): -1.473 | isotherm data point (enthalpy change per injection) (UCP1 [2]; Molar ratio (Nucleotide/UCP) 1.62611, pH 6.0, 20 °C): -0.9907 | isotherm data point (enthalpy change per injection) (UCP1 [2]; Molar ratio (Nucleotide/UCP) 1.69692, pH 6.0, 20 °C): -0.3592 | isotherm data point (enthalpy change per injection) (UCP1 [2]; Molar ratio (Nucleotide/UCP) 1.76819, pH 6.0, 20 °C): -0.2978 | isotherm data point (enthalpy change per injection) (UCP1 [2]; Molar ratio (Nucleotide/UCP) 1.83995, pH 6.0, 20 °C): 0.5154 | isotherm data point (enthalpy change per injection) (UCP1 [2]; Molar ratio (Nucleotide/UCP) 1.91217, pH 6.0, 20 °C): 0.06373 | isotherm data point (enthalpy change per injection) (UCP1 [2]; Molar ratio (Nucleotide/UCP) 1.98488, pH 6.0, 20 °C): 0.2135 | temperature shift (ΔTm) (UCP1 [3]; 1 mM nucleotide, pH 6.0, detergent-solubilised UCP1, mean of three biological repeats): 16.2 °C | ΔTm at 1000 µM (UCP1 [3]; pH 6, 1 mM nucleotide, pH 6.0, single repeats (source data Fig. 1D)): 16 °C | ΔTm at 1000 µM (UCP1 [3]; pH 6.5, 1 mM nucleotide, pH 6.5, single repeats (source data Fig. 1D)): 12 °C | ΔTm at 1000 µM (UCP1 [3]; pH 7, 1 mM nucleotide, pH 7.0, single repeats (source data Fig. 1D)): 7.8 °C | ΔTm at 1000 µM (UCP1 [3]; pH 7.5, 1 mM nucleotide, pH 7.5, single repeats (source data Fig. 1D)): 3.6 °C
SMILES: Nc1nc2c(ncn2[C@@H]2O[C@H](COP(=O)(O)OP(=O)(O)OP(=O)(O)O)[C@@H](O)[C@H]2O)c(=O)[nH]1 [GTP, guanosine triphosphate]
